Here are results for 9 compounds from patent US20160002204A1 (Board of Regents, The University of Texas System, priority 2014, published 2016).

One test concerns A549 cells. The experiment in a line: A549 proliferation (viability) assay, Cell Titer Fluor, 72 hours. The format is cell-based. The conditions noted are these: Homo sapiens. On the procedure:
A549 cells were routinely maintained in RPMI 1640 media (Gibco catalog number 11875-093) supplemented with 10% dialyzed fetal bovine serum using a humidified incubator (37° C., 5% CO2 and ambient O2). In preparation for the viability assay, cells were inoculated into 384-well black CulturPlates (Perkin Elmer) at a density of 1000 cells/well in a volume of 40 uL. Following a 24-hour incubation at 37° C., 5% CO2 and ambient O2, cells were treated with compound (10 uL) in a final DMSO concentration of 0.5% (v/v). The microplates were then incubated for 72 hours (37° C., 5% CO2 and ambient O2). Cell Titer Fluor (Promega) was subsequently added (10 uL of 6× reagent) and mixed for 15 minutes at room temperature. The plates were then incubated for 30 minutes (37° C., 5% CO2 and ambient O2) and fluorescence was subsequently read on the Perkin Elmer Envision plate reader. EC50 values were calculated using a four-parameter logistic curve fit.

Test [1] concerns the target T1, GLS1 (purified recombinant human GAC) (Homo sapiens, UniProt O94925).
T1 sequence (O94925 55-598 isoform O94925-3 limits assumed): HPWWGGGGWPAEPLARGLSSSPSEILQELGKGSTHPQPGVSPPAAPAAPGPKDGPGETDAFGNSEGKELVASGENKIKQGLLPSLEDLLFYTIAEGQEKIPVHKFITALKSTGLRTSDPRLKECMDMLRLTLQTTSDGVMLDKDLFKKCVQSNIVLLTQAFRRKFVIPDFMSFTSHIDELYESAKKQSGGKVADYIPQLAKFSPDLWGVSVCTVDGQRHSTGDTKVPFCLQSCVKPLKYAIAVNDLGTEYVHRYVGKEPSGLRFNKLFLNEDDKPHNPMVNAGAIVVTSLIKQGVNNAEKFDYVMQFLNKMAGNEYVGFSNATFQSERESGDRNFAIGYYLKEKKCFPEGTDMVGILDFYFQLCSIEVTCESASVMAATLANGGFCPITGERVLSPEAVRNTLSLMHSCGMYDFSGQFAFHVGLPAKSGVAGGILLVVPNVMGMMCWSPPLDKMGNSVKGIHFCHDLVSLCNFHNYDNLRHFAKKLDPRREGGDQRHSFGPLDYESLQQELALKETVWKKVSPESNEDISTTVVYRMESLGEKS
As to the kind of experiment: GLS1 enzymatic activity assay (dual-coupled, Amplex UltraRed/resorufin). In kind it is biochemical. How it is done: GLS1 Enzymatic Activity Assay
The inhibition of purified recombinant human GAC by varying concentrations of inhibitors is assessed via a dual-coupled enzymatic assay. The glutamate produced by the glutaminase reaction is used by glutamate oxidase to produce α-ketoglutarate, ammonia, and hydrogen peroxide, with this hydrogen peroxide subsequently being used by horseradish peroxidase to produce resorufin in the presence of Amplex UltraRed. The assay buffer consisted of 50 mM Hepes (pH 7.4), 0.25 mM EDTA and 0.1 mM Triton X-100. GAC was incubated with potassium phosphate (10 minutes at room temperature) prior to incubation with inhibitor (10 minutes at room temperature). The final reaction conditions were as follows: 2 nM GAC, 50 mM potassium phosphate, 100 mU/mL glutamate oxidase (Sigma), 1 mM glutamine (Sigma), 100 mU/mL horseradish peroxidase (Sigma), 75 μM Amplex UltraRed (Life Technologies), and 1% (v/v) DMSO. The production of resorufin was monitored on a Perkin Elmer Envision plate reader (excitation 530 nm, emission 590 nm) either in a kinetics or endpoint mode (at 20 minutes). IC50 values were calculated using a four-parameter logistic curve fit.

Molecules are shown by their SMILES. Where only a bound is given, the exact number is not on record here.

The term EC50 denotes the concentration at which the effect is half-maximal. A high value points to a less potent agent. Broadly, the IC50 is the concentration at which inhibition is half-maximal. Regarding `CC(C)OC(=O)Nc1ccn(CCCCn2cc(C(=O)NCc3cccc(OC(F)(F)F)c3)nn2)c(=O)c1` [Example 43, propan-2-yl N-(2-oxo-1-{4-[4-({[3-(trifluoromethoxy)phenyl]methyl}carbamoyl)-1H-1,2,3-triazol-1-yl]butyl}-1,2-dihydropyridin-4-yl)carbamate], in the test on A549 cells, the half-maximal effective concentration (EC50) lay in the range of 100 to 500 nM. In addition, in test [1], the IC50 was below 100 nM.
In turn, `CS(=O)(=O)N1CCC(CC(=O)Nc2ccn(CCC(F)Cn3cc(C(=O)NCc4cccc(OC(F)(F)F)c4)nn3)c(=O)c2F)CC1` (centres unmarked) [Example 302, 1-(2-fluoro-4-{3-fluoro-4-[2-(1-methanesulfonylpiperidin-4-yl)acetamido]-2-oxo-1,2-dihydropyridin-1-yl}butyl)-N-{[3-(trifluoromethoxy)phenyl]methyl}-1H-1,2,3-triazole-4-carboxamide] had an EC50 in the test on A549 cells of 100 to 500 nM. For the same compound, in test [1], the IC50 is below 100 nM.
For `O=C(Cc1ccccc1)Nc1ccn(CCC(F)Cn2cc(C(=O)NCC3CCCC3)nn2)c(=O)c1F` (centres unmarked) [Example 381, N-(cyclopentylmethyl)-1-{2-fluoro-4-[3-fluoro-2-oxo-4-(2-phenylacetamido)-1,2-dihydropyridin-1-yl]butyl}-1H-1,2,3-triazole-4-carboxamide], in the test with A549 cells, the half-maximal effective concentration (EC50) was 500 to 5000 nM. In addition, in test [1], the IC50 was 100 to 500 nM.
Regarding `O=C(CN1CCOCC1)Nc1ccn(CCC(F)Cn2cc(C(=O)NCc3cccc(OC(F)(F)F)c3)nn2)c(=O)c1` (centres unmarked) [Example 213, 1-(2-fluoro-4-{4-[2-(morpholin-4-yl)acetamido]-2-oxo-1,2-dihydropyridin-1-yl}butyl)-N-{[3-(trifluoromethoxy)phenyl]methyl}-1H-1,2,3-triazole-4-carboxamide], in the test with A549 cells, the EC50 was 500 to 5000 nM. Moreover, the IC50 in test [1] lay within 100 to 500 nM.
On the same counts, the results for `CC(C)(CO)CNC(=O)c1cn(CC(F)CCn2ccc(NC(=O)CN3CCN(C(=O)OC(C)(C)C)CC3)cc2=O)nn1` (centres unmarked) [Example 406, tert-butyl 4-({[1-(3-fluoro-4-{4-[(3-hydroxy-2,2-dimethylpropyl)carbamoyl]-1H-1,2,3-triazol-1-yl}butyl)-2-oxo-1,2-dihydropyridin-4-yl]carbamoyl}methyl)piperazine-1-carboxylate] are above 5000 nM and 500 to 5000 nM.
For `O=C(NCc1cc(C(F)(F)F)ccn1)c1cn(CC(F)CCn2ccc(COc3ccc(F)cc3F)cc2=O)nn1` (centres unmarked) [Example 484, 1-{4-[4-(2,4-difluorophenoxymethyl)-2-oxo-1,2-dihydropyridin-1-yl]-2-fluorobutyl}-N-{[4-(trifluoromethyl)pyridin-2-yl]methyl}-1H-1,2,3-triazole-4-carboxamide] the same measures were 100 to 500 nM and below 100 nM.
For `Nc1nnc(CCCCn2ccc(NC(=O)Cc3cccc(OC(F)(F)F)c3)nc2=O)s1` [Example 79, N-{1-[4-(5-amino-1,3,4-thiadiazol-2-yl)butyl]-2-oxo-1,2-dihydropyrimidin-4-yl}-2-[3-(trifluoromethoxy)phenyl]acetamide] the same measures were 500 to 5000 nM and 500 to 5000 nM.
Turning to `O=C(NCc1cccc(OC(F)(F)F)c1)c1cn(CC(F)CCn2ccc(NC(=O)[C@H](O)c3ccccc3)cc2=O)nn1` (stereo partly drawn) [Example 223, 1-(2-fluoro-4-{4-[(2R)-2-hydroxy-2-phenylacetamido]-2-oxo-1,2-dihydropyridin-1-yl}butyl)-N-{[3-(trifluoromethoxy)phenyl]methyl}-1H-1,2,3-triazole-4-carboxamide], the EC50 in the test on A549 cells was below 100 nM. The IC50 in test [1] was below 100 nM.
On to `CCN1CCC(CC(=O)Nc2ccn(CCC(F)Cn3cc(C(=O)NCc4cccc(OC(F)(F)F)c4)nn3)c(=O)c2)CC1` (centres unmarked) [Example 218, 1-(4-{4-[2-(1-ethylpiperidin-4-yl)acetamido]-2-oxo-1,2-dihydropyridin-1-yl}-2-fluorobutyl)-N-{[3-(trifluoromethoxy)phenyl]methyl}-1H-1,2,3-triazole-4-carboxamide], for which the IC50 in test [1] lay within 100 to 500 nM.
